Source: PMC8880385 (Pharmaceuticals, 2022)
Values joined by “and” are separate entries in the source; they are usually repeats but may differ in a detail not shown here. Equal values may be shown once. “Also recorded” adds a separate entry of the source.

Assays:
[1] = tested on: Brugia pahangi adult females; test: In vitro motility assay with adult female Brugia pahangi (Worminator)
O. volvulus pre-adult L5 [2] = test: O. volvulus pre-adult (Ov L5) motility assay; type: cell-based, Onchocerca volvulus; conditions: for inhibition at 1 µM: Onchocerca volvulus
Method: O. volvulus adult male and female worms, which can only be obtained from infected individuals, are not readily accessible for ex vivo studies. Moreover, since there is no small animal model that can maintain infections by O. volvulus, a recently developed in vitro system was used to evaluate the macrofilaricidal effects on pre-adult worms. All compounds except for 04 were tested in this O. volvulus pre-adult/L5 motility and viability assay.
Briefly, Ov L3 larvae were cultured to the pre-adult/L5 stage in vitro as described by Voronin et al., 2019 [45]. Once larvae reached the L5 stage (after at least 70 days in culture), 8–10 Ov L5 were moved to new transwell inserts in a 24-well plate containing 0.5 mL Ov L4-CMS media seeded with a 3 × 10^4/well Human Umbilical Vein Endothelial Cells (HUVEC) monolayer. Duplicate wells were treated with 1 and/or 10 µM of compound. Ov L5 were exposed to compounds for 14 days (exchanged 50% of media with fresh compound every two days) and then cultured with new media without compound, exchanging 50% of media every 2–3 days, up to day 36. Control Ov L5 were treated with 0.05% DMSO. Concentrations were chosen based on activity in the B. pahangi female motility assay. Motility was assessed visually and ranked on a 0–100% scale every 2–3 days over the course of the assay. At the end of the motility assay, Ov L5 viability was measured by 3-(4,5-dimethylthiazol-2-yl)-2,5-diphenyltetrazolium bromide (MTT) assay. Ov L5 were incubated with 0.1% MTT in PBS at 37 °C for 1 h then visually inspected for blue coloration indicating MTT reduction. Worms were considered dead if <50% of the worm was stained blue, and worms were considered alive if >50% of the worm was stained blue.

O. ochengi adult males = test: O. ochengi adult male motility assay; type: cell-based; conditions: Onchocerca ochengi, 120 h; read-out: O. ochengi Adult Males Inhibition of Motility Day 5 IC50
Excerpt: As humans are the only hosts for O. volvulus which are unavailable for screening, drug discovery relies on the surrogate filarial parasites Brugia spp. and cattle Onchocerca spp. Prioritized compounds from the Brugia worm screens were further tested with female and male adult O. ochengi as well as O. ochengi and L. loa mf.
For these assays, O. ochengi adults were extracted from the subcutaneous nodules of infected cow skins purchased from the local slaughterhouse (Douala, Littoral Region, Cameroon) and incubated in 4 mL complete culture media comprised of RPMI-1640 (Sigma-Aldrich), 5% newborn calf serum, 200 units/mL penicillin, 200 μg/mL streptomycin and 2.5 μg/mL amphotericin B (Sigma-Aldrich) in 12-well plates overnight to validate sterility prior to the assays. Four to eight O. ochengi adult masses were treated individually the following day with a serial dilution of each compound, and controls were treated with 1% DMSO. While in culture, the male worms normally egress from the nodules into the surrounding media and thus can be monitored in parallel for motility. The O. ochengi adult masses were incubated at 37 °C with 5% CO2 for the duration of the assay. Male motility within each well was visually scored every day and over 5 days after compound addition, and female viability within the nodules was assessed by MTT after 7 days as previously described. The O. ochengi adult masses containing female worms were individually placed in wells of a 48-well plate with 0.5 mL of 0.5 mg/mL MTT in PBS and incubated at 37 °C for 30 min. Female viability was visually rated by the degree of formazan production (live worms have blue coloration) in the female worm within the treated nodule versus control worm masses. […] Prism 4.0 for Windows was used to calculate IC50s.

O. volvulus pre-adult L5 [3] = test: O. volvulus pre-adult (Ov L5) motility assay; type: cell-based; conditions: Onchocerca volvulus, 504 h; on Day 21; read-out: O. volvulus L5 Inhibition of Motility IC50
Brugia pahangi = test: Brugia pahangi/gerbil model of infection: worm and peritoneal mf counts at necropsy; type: in vivo
Method: Male Mongolian gerbils 50–60 g, 5–7 weeks in age (Meriones unguiculatus, Charles River Laboratories International, Inc., Wilmington, MA, USA) were injected intraperitoneally (IP) with 200 third-larval stage B. pahangi and treated a minimum of 3 months later when larvae developed into adult worms.
Animals were given IP doses of 1 mg/kg once a day for 5 days based on in vivo studies by Jones et al., 2009 [14] and gerbil PK analyses. Compounds are light sensitive and were shielded from light during formulation. Animals were necropsied 13 weeks post-first dose, and peritoneal cavities were washed with 100 mL of PBS to collect adult worms and mf that had been released from female worms. Adult worms were separated by sex, counted, and processed for subsequent analyses. Mf from the peritoneal cavities were quantified by mixing peritoneal wash 9:1 (v/v) with 0.04% methylene blue:water and counted using an inverted microscope.
Worm burden, peritoneal mf counts, overnight mf sheds and qPCR data were analyzed using a Kruskal–Wallis test followed by Dunn’s multiple comparison. To determine significant differences in embryograms, a two-way ANOVA was conducted with a Dunnett’s multiple comparisons test, and significance levels were determined based on comparisons with vehicle treated animals. All statistical analyses were determined using Prism 8 version 8.2.0(272).

Loa loa mf = test: Loa loa microfilariae motility counter-screen; type: cell-based
Method: (§1) To assess the effects of the compounds on O. ochengi mf, the mf were harvested from infected cow skin and cultured (10–15 mf per well) in 100 µL media in 96-well plates with a confluent feeder layer of monkey kidney epithelial cells (MK2) as previously described. […] All compounds were also counter-screened with L. loa mf collected from infected individuals with approval from the University of Buea (IRB approval # 964-19). Mf were separated from blood cells using a Percoll gradient as previously described and set up for assays (10–15 mf per well).

O. ochengi mf = test: O. ochengi microfilariae motility assay; type: cell-based, Onchocerca ochengi
Method: as §1

[4] = gerbil, 1 mg/kg IP once a day for 5 days, necropsy 13 weeks post-first dose, mean (SEM)
[5] = gerbil, 1 mg/kg IP once a day for 5 days, necropsy 13 weeks post-first dose, mean (SEM), 1 mg/kg

IC50 ([1]; Brugia pahangi, 72 h, read-out: Brugia Adult Females Inhibition of Motility Day 3 IC50): 0.3 nM
Brugia Adult Females Inhibition of Motility Day 3 IC50 ([1]; Day 3): sub-micromolar range
IC50 (O. ochengi adult males): 110 nM
IC50 (O. volvulus pre-adult L5 [3]): < 300 nM
IC50 (O. ochengi mf; Onchocerca ochengi, 120 h, Day 5): 300 nM
SMILES: Cc1cc(/C=C/c2ccc3cc(N(C)C)ccc3[n+]2C)c(C)n1-c1ccccc1 [PVP, pyrvinium pamoate, reference compound]
Brugia Adult Females Inhibition of Motility Day 3 @ 1 µM ([1]; 1 µM, Day 3, 1 µM): 82%
inhibition at 1 µM ([1]; Brugia pahangi, 72 h, read-out: Brugia Adult Females Inhibition of Motility Day 3 @ 1 µM, 1 µM, Day 3): > 70%
Ov L5 fate during assay (in words) (O. volvulus pre-adult L5 [2]; 1 µM, 14 days drug then washout): dead by day 14; also recorded: did not recover
inhibition at 1 µM (O. volvulus pre-adult L5 [2]; 336 h, Day 14 @ 1 µM): 100%
inhibition at 1 µM (O. volvulus pre-adult L5 [2]; Day 36 @ 1 µM, 14 days drug then washout): > 90%
Total female worms recovered from treated animals (Brugia pahangi; gerbil, 1 mg/kg IP): 1
Reduction of peritoneal mf numbers compared to control group (Brugia pahangi; gerbil, 1 mg/kg IP once a day for 5 days, 13 weeks post-first dose): ~ 95%
Reduction of adult worm numbers (worm burden) compared to control group (Brugia pahangi; gerbil, 1 mg/kg IP once a day for 5 days, 13 weeks post-first dose, not statistically significant, 1 mg/kg): ~ 95% and 95%
Female worms per animal (Brugia pahangi; [4]): 0.1 (0.1)
Male worms per animal (Brugia pahangi; [4]): 0.7 (0.4)
Adult worms per animal (Brugia pahangi; [5]): 0.9 and 0.9 (0.5)
Mf per animal (peritoneal cavity) (Brugia pahangi; [5]): 10.4 × 10^3 and 10,429
Total worms recovered from treated animals (Brugia pahangi; n = 7 animals, vehicle total 148 worms (n = 8)): 6 worms
Loa loa Mf Inhibition of Motility Day 5 @ 10 µM (Loa loa mf): completely inhibited
inhibition at 10 µM (Loa loa mf; Loa loa, 120 h, Day 5): 100%
O. ochengi Mf Inhibition of Motility Day 5 @ 10 µM (O. ochengi mf; 10 µM): completely inhibited
inhibition at 10 µM (O. ochengi mf; Onchocerca ochengi, 120 h, 10 µM, Day 5): 100%
